Experiment [1] has as its target D-3 receptors (Homo sapiens, UniProt P35462). As to conditions: reported, J. Med. Chem. 2000; cited from earlier work.
Experiment [2] addresses T1, rat α1A-adrenoceptor (prostate) (Rattus norvegicus, UniProt P43140).
T1 sequence (P43140 1-466): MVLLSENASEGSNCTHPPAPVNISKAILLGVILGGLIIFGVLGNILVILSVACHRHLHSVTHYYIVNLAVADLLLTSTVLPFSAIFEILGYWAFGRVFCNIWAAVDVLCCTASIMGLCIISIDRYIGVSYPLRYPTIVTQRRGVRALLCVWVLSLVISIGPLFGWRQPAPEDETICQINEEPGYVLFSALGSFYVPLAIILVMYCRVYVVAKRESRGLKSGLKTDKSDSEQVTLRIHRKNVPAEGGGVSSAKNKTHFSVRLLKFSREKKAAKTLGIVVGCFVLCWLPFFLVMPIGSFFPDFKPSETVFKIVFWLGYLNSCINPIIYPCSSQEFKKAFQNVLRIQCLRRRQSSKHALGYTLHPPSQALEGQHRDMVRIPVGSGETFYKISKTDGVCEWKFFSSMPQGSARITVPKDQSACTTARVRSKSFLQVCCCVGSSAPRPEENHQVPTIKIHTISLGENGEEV
Description: In-vitro functional study, agonist-induced contractile response on isolated rat prostate. In kind it is biochemical. As to the method:
Aorta, prostate and spleen tissues were isolated from urethane anaesthetized (1.5 gm/kg) male wistar rats. […] A resting tension of 2 g (aorta) or 1 g (spleen and prostate) was applied to tissues. Contractile response was monitored using a force displacement transducer and recorded on chart recorders. Tissues were allowed to equilibrate for 2 hours. At the end of equilibration period, concentration response curves to norepinephrine (aorta) and phenylepinephrine (spleen and prostate) were obtained in absence and presence of tested compound (at concentrations of […]). Antagonist affinities were calculated and expressed as pKB vales in Table II.
To compare the differences in pKB at the α1-arenrenoceptor subtypes one-way ANOVA followed by Dunett ‘t’ test was applied. A p<0.05 was considered statistically significant.

Experiment [3] addresses T2, human α1D-adrenoceptors (Homo sapiens, UniProt P25100).
T2 sequence (P25100 1-572): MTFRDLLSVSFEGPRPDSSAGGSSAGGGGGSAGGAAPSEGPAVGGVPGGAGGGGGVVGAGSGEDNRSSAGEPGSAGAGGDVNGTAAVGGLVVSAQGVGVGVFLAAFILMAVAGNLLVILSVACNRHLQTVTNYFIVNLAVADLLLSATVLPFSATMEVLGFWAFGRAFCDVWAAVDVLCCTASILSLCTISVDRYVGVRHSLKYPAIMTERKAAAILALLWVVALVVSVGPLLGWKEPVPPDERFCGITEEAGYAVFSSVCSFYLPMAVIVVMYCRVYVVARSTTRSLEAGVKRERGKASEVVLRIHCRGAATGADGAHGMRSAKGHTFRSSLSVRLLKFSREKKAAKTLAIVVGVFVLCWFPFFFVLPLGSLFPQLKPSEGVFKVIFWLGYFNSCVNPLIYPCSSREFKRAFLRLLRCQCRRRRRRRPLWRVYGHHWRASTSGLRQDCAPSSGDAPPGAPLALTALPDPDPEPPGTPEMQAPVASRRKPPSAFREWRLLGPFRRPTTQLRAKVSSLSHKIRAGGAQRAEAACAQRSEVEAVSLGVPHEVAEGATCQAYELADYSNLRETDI
Description: Radioligand-receptor binding assay, human recombinant α1D-adrenoceptor, [3H]prazosin. The protocol: (§1) Chinese hamster ovary (CHO) cells which had been stably transfected with human α1A, α1B, or α1D-adrenoceptors (Keffel et al., Biochem. Biophys. Res. Commun., 2000, 272, 906–11) were cultured in an atmosphere of 5% CO2/95% air at 37° C. in F-12 HAM medium supplemented with 10% heat-inactivated fetal calf serum, 1 mM glutamine, 100 U/ml penicillin and 0.1 mg/ml streptomycin. Selection pressure was maintained by regular addition of geneticin to the culture medium.
(§2) Competitive radioligand binding to the cloned subtypes of […] was performed using [^3H]prazosin as the radioligand as described by Michel et al, Br. J. Pharmacol., 98, 883–889 (1989) with minor modifications. Experiments were performed in binding buffer consisting of 50 mM Tris, 10 mM MgCl2 and 0.5 mM EDTA at pH 7.5 in a total assay volume of 1000 μl. The protein content typically was 40–60 μg/assay. The mixtures were incubated at 25° C. for 45 minutes. Incubations were terminated by rapid vacuum filtration over GF/C filters followed by two washes of the filters each with 10 ml ice-cold incubation buffer. Non-specific binding was defined as binding in the presence of 10 μM phentolamine.
(§3) The IC50 & Kd were estimated by using the non-linear curve fitting program using G Pad Prism software. The value of inhibition constant Ki was calculated from competitive binding studies by using Cheng & Prusoff equation [Cheng & Prusoff, Biochem. Pharmacol., 22, 3099–3108 (1973)], Ki=IC50/(1+L/Kd), where L is the concentration of [^3H] prazosin used in the particular experiment. Kd of [^3H] prazosin was determined from saturation binding studies. The values were tabulated as mean±SEM of pKi values, where pKi is the −log of Ki value.

Experiment [4] addresses T3, human α1B-adrenoceptors (Homo sapiens, UniProt P35368).
T3 sequence (P35368 1-520): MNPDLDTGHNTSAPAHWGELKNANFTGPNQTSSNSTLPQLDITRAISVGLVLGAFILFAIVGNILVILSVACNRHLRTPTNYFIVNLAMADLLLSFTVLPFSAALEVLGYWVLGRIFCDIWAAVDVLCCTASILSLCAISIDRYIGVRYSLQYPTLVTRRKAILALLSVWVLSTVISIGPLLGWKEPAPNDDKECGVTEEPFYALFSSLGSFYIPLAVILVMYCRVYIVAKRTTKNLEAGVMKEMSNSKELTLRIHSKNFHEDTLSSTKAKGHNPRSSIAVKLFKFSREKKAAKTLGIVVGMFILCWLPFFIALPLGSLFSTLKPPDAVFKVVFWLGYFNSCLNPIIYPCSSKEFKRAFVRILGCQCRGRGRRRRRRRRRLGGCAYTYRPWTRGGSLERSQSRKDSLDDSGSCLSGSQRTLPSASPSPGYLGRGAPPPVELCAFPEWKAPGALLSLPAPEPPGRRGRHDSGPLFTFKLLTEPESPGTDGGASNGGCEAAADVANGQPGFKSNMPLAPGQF
The experiment in a line: Radioligand-receptor binding assay, human recombinant α1B-adrenoceptor, [3H]prazosin. The protocol:
as §1, §2, §3

Structures are written as SMILES. pKi: −log10 of the molar value. Like-named read-outs stand apart in the source and are kept apart here.

Sequence of D-3 receptors (P35462 whole entry): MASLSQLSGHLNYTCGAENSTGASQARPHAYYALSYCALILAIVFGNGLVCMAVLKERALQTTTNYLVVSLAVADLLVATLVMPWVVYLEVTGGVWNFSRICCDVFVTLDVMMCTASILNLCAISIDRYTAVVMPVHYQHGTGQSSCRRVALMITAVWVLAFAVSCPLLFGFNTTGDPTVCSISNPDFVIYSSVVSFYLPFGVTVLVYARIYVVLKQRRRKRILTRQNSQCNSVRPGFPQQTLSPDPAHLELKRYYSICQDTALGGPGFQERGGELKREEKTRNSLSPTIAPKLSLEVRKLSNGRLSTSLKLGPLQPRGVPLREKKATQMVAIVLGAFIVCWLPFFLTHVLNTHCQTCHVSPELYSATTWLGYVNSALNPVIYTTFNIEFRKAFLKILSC

On to `CCOc1ccccc1OCCNC(C)Cc1ccc(OC)c(S(N)(=O)=O)c1` (single isomer, unassigned; (-)) [Tamsulosin, (−) isomer of 5-[2-[2-(2-ethoxyphenoxy)ethylamino]-2-methylethyl]-2-methoxybenzene sulfonamide, reference compound], for which the “affinity for D-3 receptors” value in experiment [1] is reported as “subnanomolar affinity”. Also, the Kb in experiment [2] (rat prostate, phenylepinephrine-induced contraction, read-out: pKB α1A (converted)) is 0.0309 nM. In addition, the Ki is 0.0813 nM in experiment [3] (human recombinant receptors in CHO cells, mean ± SEM, read-out: pKi α1D (converted)) and 0.692 nM in experiment [4] (human recombinant receptors in CHO cells, mean ± SEM, read-out: pKi α1B (converted)).
Broadly, the pKi is the negative decadic logarithm of the Ki, by convention in mol/L. In the case of `CCOc1ccccc1OCCN[C@H](C)Cc1ccc(O)c(S(N)(=O)=O)c1` [Formula I, R (−)-5-[2-[[2-(2-ethoxyphenoxy)ethyl]amino]propyl]-2-hydroxybenzenesulfonamide], the Kb in experiment [2] is 0.0162 nM. For the same compound, the “α1A versus α1B selectivity” value in experiment [2] (functional assays, rat tissues) is given as 31 fold. For the same compound, the figures for the negative logarithm of the Ki (pKi) in experiment [3] and in experiment [4] were 9.97 and 9.49, respectively.

(Values after US7084301B2 (Ranbaxy Laboratories Limited, priority 2003, dated 2006).)
